Measured values published in US20200368247A1, “CENICRIVIROC FOR THE TREATMENT OF FIBROSIS” (Tobira Therapeutics, Inc., priority 2014, published 2020).

Assays:
Assay type in all cases: in vivo, human
[1] = Study 202 biomarkers of inflammation
Procedure: As an exploratory analysis, levels of inflammation biomarkers MCP-1, sCD14, high sensitivity C-reactive protein [hs-CRP], interleukin-6 [IL-6], D-dimer, and fibrinogen) were measured. Baseline values and changes from baseline at Week 24 and Week 48 of MCP-1, sCD14, hs-CRP, IL-6, D-dimer, and fibrinogen are summarized in Table 25.
The sCD14 samples were originally analyzed in 2 separate batches: Batch 1 included samples leading up to the Week 24 primary analysis and Batch 2 included Week 32 and Week 48 (end of study) samples. A repeat analysis of archived samples all analyzed in one batch was conducted for consistency in analysis across time points. To control for the effects of covariates, a linear mixed-model repeated-measures analysis was conducted on the changes from baseline in sCD14 (analysis dated September 2013).

[2] = Study 202 post-hoc APRI and FIB-4 fibrosis index scores
Procedure: APRI and FIB-4 scores were calculated. Change in score category from baseline (BL) to Weeks 24 and 48 was assessed in patients with non-missing data. Correlations between changes from BL in APRI and FIB-4 scores, and MCP-1 (CCR2 ligand) and sCD14 (inflammatory biomarker) levels were evaluated.

[3] = Study 202 treatment-emergent laboratory abnormalities (DAIDS grade)
Source text: The 12th subject (Subject 42001) had 2 consecutive CPK elevations (Grade 3 followed by Grade 4) that returned to normal values while continuing treatment at a subsequent visit. None of the CPK elevations were associated with clinical symptoms; no subjects discontinued due to CPK elevations and there were no differences in AEs related to musculoskeletal disorders between the CVC and EFV arms.
The number of subjects with graded treatment-emergent laboratory abnormalities in selected liver parameters of interest is shown in Table 34. No Grade 4 ALT or AST elevations were observed. Except for one Grade 3 AST elevation, all ALT and AST elevations were Grade 1 or Grade 2. […] All abnormalities in bilirubin were Grade 1 or Grade 2. […]

[4] = All CVC (N = 115), EFV (N = 28)
[5] = All CVC (N = 115), EFV (N = 28), through Week 48

## CCCCOCCOc1ccc(-c2ccc3c(c2)/C=C(/C(=O)Nc2ccc([S@@+]([O-])Cc4cncn4CCC)cc2)CCCN3CC(C)C)cc1 [CVC, (S)-8-[4-(2-Butoxyethoxy)phenyl]-1-isobutyl-N-(4-{[(1-propyl-1H-imidazol-5-yl)methyl]sulfinyl}phenyl)-1,2,3,4-tetrahydro-1-benzazocine-5-carboxamide]
[1]; CVC 100 mg
  sCD14 Baseline value, Mean: 1.8e+06 pg/mL
  sCD14 change from baseline at Week 12, Mean: -140000 pg/mL
  sCD14 change from baseline at Week 12, Median: -160000 pg/mL
  sCD14 change from baseline at Week 24, Mean: -190000 pg/mL
  sCD14 change from baseline at Week 24, Median: -180000 pg/mL
  sCD14 change from baseline at Week 32, Mean: 110000 pg/mL
  sCD14 change from baseline at Week 32, Median: 120000 pg/mL
  sCD14 change from baseline at Week 48, Mean: 100000 pg/mL
  sCD14 change from baseline at Week 48, Median: 100000 pg/mL
[1]; CVC 200 mg
  sCD14 change from baseline at Week 12, Mean: -230000 pg/mL
  sCD14 change from baseline at Week 12, Median: -210000 pg/mL
  sCD14 change from baseline at Week 24, Mean: -230000 pg/mL
  sCD14 change from baseline at Week 24, Median: -190000 pg/mL
  sCD14 change from baseline at Week 32, Mean: -20000 pg/mL
  sCD14 change from baseline at Week 32, Median: -20000 pg/mL
  sCD14 change from baseline at Week 48, Mean: -40000 pg/mL
  sCD14 change from baseline at Week 48, Median: -40000 pg/mL
[1]; Study 202, up to Week 48
  plasma MCP-1 over time: increases over time
[2]; Baseline
  APRI 0.5-1.5, patients: 14%
  APRI <0.5, patients: 84%
  APRI >1.5, patients: 2%
  FIB-4 1.45-3.25, patients: 17%
  FIB-4 <1.45, patients: 82%
  FIB-4 >3.25, patients: 1%
[2]; Week 24
  APRI 0.5-1.5, patients: 7%
  APRI <0.5, patients: 93%
  APRI decreased 1 category from baseline, patients: 14%
  FIB-4 1.45-3.25, patients: 7%
  FIB-4 <1.45, patients: 93%
  FIB-4 decreased 1 category from baseline, patients: 13%
[2]; Week 48
  APRI 0.5-1.5, patients: 8%
  APRI <0.5, patients: 91%
  APRI >1.5, patients: 1%
  APRI decreased 1 category from baseline, patients: 10%
  FIB-4 1.45-3.25, patients: 5%
  FIB-4 <1.45, patients: 94%
  FIB-4 >3.25, patients: 1%
  FIB-4 decreased 1 category from baseline, patients: 14%
[2]; pooled CVC 100 mg and 200 mg
  subjects with improvements in APRI and FIB-4 scores over time: ≥ 10%
[3]; All CVC
  Any graded (Grade 1-4) laboratory abnormality, %: 92%
  Worst Grade 1 laboratory abnormality, %: 32%
  Worst Grade 2 laboratory abnormality, %: 43%
  Worst Grade 3 laboratory abnormality, %: 11%
  Worst Grade 4 laboratory abnormality, %: 5%
[3]; [4]
  ALT abnormality, worst Grade 1: 10 (9%) n (%)
  ALT abnormality, worst Grade 2: 5 (4%) n (%)
  ALT abnormality, worst Grade 3: 0 n (%)
  ALT abnormality, worst Grade 4: 0 n (%)
  AST abnormality, worst Grade 1: 14 (12%) n (%)
  AST abnormality, worst Grade 2: 6 (5%) n (%)
  AST abnormality, worst Grade 3: 1 (< %) n (%)
  AST abnormality, worst Grade 4: 0 n (%)
  Alanine aminotransferase (ALT) abnormality, any worst grade: 15 (13%) n (%)
  Aspartate aminotransferase (AST) abnormality, any worst grade: 21 (18%) n (%)
  Bilirubin abnormality, any worst grade: 7 (6%) n (%)
  Bilirubin abnormality, worst Grade 1: 3 (3%) n (%)
  Bilirubin abnormality, worst Grade 2: 4 (3%) n (%)
  Bilirubin abnormality, worst Grade 3: 0 n (%)
  Bilirubin abnormality, worst Grade 4: 0 n (%)
[3]; [5]
  AST increased, Grade 3: 1 (<1%) n (%)
  AST increased, Grade 4: 0 n (%)
  Any Grade 3 laboratory abnormality: 13 (11%) n (%)
  Any Grade 3 or Grade 4 laboratory abnormality: 19 (17%) n (%)
  Any Grade 4 laboratory abnormality: 6 (5%) n (%)
  Aspartate aminotransferase (AST) increased (Grade 3 or 4): 1 (<1%) n (%)
  CPK increased, Grade 3: 8 (7%) n (%)
  CPK increased, Grade 4: 4 (3%) n (%)
  Creatine phosphokinase (CPK) increased (Grade 3 or 4): 12 (10%) n (%)
  Fibrinogen decreased (Grade 3 or 4): 2 (2%) n (%)
  Fibrinogen decreased, Grade 3: 2 (2%) n (%)
  Fibrinogen decreased, Grade 4: 0 n (%)
  Hemoglobin decreased (Grade 3 or 4): 1 (<1%) n (%)
  Hemoglobin decreased, Grade 3: 0 n (%)
  Hemoglobin decreased, Grade 4: 1 (<1%) n (%)
  Neutrophils decreased (Grade 3 or 4): 2 (2%) n (%)
  Neutrophils decreased, Grade 3: 2 (2%) n (%)
  Neutrophils decreased, Grade 4: 0 n (%)
  Phosphate decreased (Grade 3 or 4): 4 (3%) n (%)
  Phosphate decreased, Grade 3: 4 (3%) n (%)
  Phosphate decreased, Grade 4: 0 n (%)
[3]; CVC 100 mg
  Any graded (Grade 1-4) laboratory abnormality, %: 88%
  Worst Grade 1 laboratory abnormality, %: 36%
  Worst Grade 2 laboratory abnormality, %: 40%
  Worst Grade 3 laboratory abnormality, %: 7%
